Results reported in US20260193268A1, “TRICYCLIC PI3Ka INHIBITOR, PREPARATION METHOD THEREFOR, AND PHARMACEUTICAL USE THEREOF” (WIGEN BIOMEDICINE TECHNOLOGY (SHANGHAI) CO., LTD., priority 2022, published 2026).
Where two headings read alike, the source gives them in different places.

Columns and labels:
[1] = system: HCC1954 cells (with PI3Kα H1047R mutation); assay: In vitro inhibition of HCC1954 cell proliferation (CellTiter-Lumi); assay type: cell-based; settings: Homo sapiens, HCC1954, 144 h, HCC1954 cells, 144 h, CellTiter-Lumi
Procedure: Assay for In Vitro Inhibition of HCC1954 Cell Proliferation by Compounds of the Present Disclosure
The growth of the cells was evaluated, and the IC50 for the inhibition of cell growth by the compounds was calculated.

[2] = system: MCF-7 cells (with PI3Kα E545K mutation); assay: In vitro inhibition of MCF-7 cell proliferation (CellTiter-Lumi); assay type: cell-based; settings: Homo sapiens, MCF7, 144 h
Procedure: Biological Example 3. Assay for In Vitro Inhibition of MCF-7 Cell Proliferation by Compounds of the Present Disclosure
MCF-7 cells (with PI3Kα E545K mutation) were seeded into a 384-well plate (Fisher 142762) at 2000 cells per well. The next day, serially diluted compounds were added, and 144 h after the addition, CellTiter-Lumi (Beyotime C0068XL) was added to measure the ATP content in the cells. The growth of the cells was evaluated, and the IC50 for the inhibition of cell growth by the compounds was calculated.

[3] = class symbols, read-out: Inhibitory activity against HCC1954 cells (IC50), class symbols
[4] = class symbols, read-out: Inhibitory activity against MCF-7 cells (IC50), class symbols
[5] = numeric values, read-out: Inhibitory activity against HCC1954 cells (IC50)
[6] = numeric values, read-out: Inhibitory activity against MCF-7 cells (IC50)

Row | SMILES | IC50 [1, 3] [nM] | IC50 [2, 4] [nM] | IC50 [1, 5] [nM] | IC50 [2, 6] [nM]
1 | CC(C)C=C(C#N)C(=O)Nc1ccc(N2CC(N3CCN(c4ccc5c(c4)-c4nc(N6C(=O)OC[C@H]6C(F)F)cn4CCO5)CC3)C2)nc1 [Compound 244] | < 50 | < 50 | – | –
2 | COc1cc2c(cc1N1CCN(C3CN(c4ccc(NC(=O)C(C#N)=CC(C)(C)C)cc4)C3)CC1)-c1nc(N3C(=O)OC[C@H]3C(F)F)cn1CCO2 [Compound 318] | < 50 | < 50 | – | –
3 | CC(=O)NC(C)(C)C=C(C#N)C(=O)Nc1ccc(N2CC(N3CCN(c4ccc5c(c4)-c4nc(N6C(=O)OC[C@H]6C(F)F)cn4CCO5)CC3)C2)cc1 [Compound 325] | < 50 | < 50 | – | –
4 | CC(C)(C=C(C#N)C(=O)Nc1ccc(N2CC(N3CCN(c4ccc5c(c4)-c4nc(N6C(=O)OC[C@H]6C(F)F)cn4CCO5)CC3)C2)c(F)c1)NC1COC1 [Compound 221] | < 50 | < 50 | – | –
5 | CC(C)OC(=O)OCOP(=O)(OCOC(=O)OC(C)C)OCOC(C)(C)C=C(C#N)C(=O)Nc1ccc(N2CC(N3CCN(c4ccc5c(c4)-c4nc(N6C(=O)OC[C@H]6C(F)F)cn4CCO5)CC3)C2)cc1 [Compound 344] | < 50 | < 50 | – | –
6 | C=CC(=O)Nc1ccc(C2CN(C3CCN(c4ccc5c(c4)-c4nc(N6C(=O)OC[C@H]6C(F)F)cn4CCO5)CC3)C2)cc1 [Compound 160] | – | – | 47 | 3.5
7 | C=CC(=O)N1CC(N2CCC(CN3CC=C(c4ccc5c(c4)-c4nc(N6C(=O)OC[C@H]6C(F)F)cn4CCO5)CC3)CC2)C1 [Compound 88] | – | – | 212 | 32
8 | C=CC(=O)N1CC[C@@H](CN2CC(CN3CCN(c4ccc5c(c4)-c4nc(N6C(=O)OC[C@H]6C(F)F)cn4CCO5)CC3)C2)C1 [Compound 37] | – | – | 750 | 75
9 | CC(C)(C=C(C#N)C(=O)Nc1cnc(N2CC(N3CCN(c4ccc5c(c4)-c4nc(N6C(=O)OC[C@H]6C(F)F)cn4CCO5)CC3)C2)nc1)N1CC2(COC2)C1 [Compound 264] | < 50 | < 50 | – | –
10 | COCCNC(C)(C)C=C(C#N)C(=O)Nc1ccc(N2CC(N3CCN(c4ccc5c(c4)-c4nc(N6C(=O)OC[C@H]6C(F)F)cn4CCO5)CC3)C2)nn1 [Compound 303] | < 50 | < 50 | – | –
11 | C=C(C)C(=O)Nc1ccc(N2CC(CN3CCN(c4ccc5c(c4)-c4nc(N6C(=O)OC[C@H]6C(F)F)cn4CCO5)CC3)C2)cc1 [Compound 45] | – | – | > 1000 | 244
12 | CC1(C=C(C#N)C(=O)Nc2cnc(N3CC(N4CCN(c5ccc6c(c5)-c5nc(N7C(=O)OC[C@H]7C(F)F)cn5CCO6)CC4)C3)nc2)COC1 [Compound 269] | < 50 | < 50 | – | –
13 | CC(C)(C=C(C#N)C(=O)Nc1ccc(N2CC(N3CCN(c4ccc5c(c4)-c4nc(N6C(=O)OC[C@H]6C(F)F)cn4CCO5)CC3)C2)nc1)NC1COC1 [Compound 239] | < 50 | < 50 | – | –
14 | C=CC(=O)N1CC(N2CCC(c3ccc(-c4ccc5c(c4)-c4nc(N6C(=O)OC[C@H]6C(F)F)cn4CCO5)cc3)CC2)C1 [Compound 197] | 100 to 1000 | < 50 | – | –
15 | CC(C)(O)C=C(C#N)C(=O)Nc1ccc(N2CC(N3CCN(c4ccc5c(c4)-c4nc(N6C(=O)OC[C@H]6C(F)F)cn4CCO5)CC3)C2)cc1 [Compound 211] | < 50 | < 50 | – | –
16 | C=CC(=O)Nc1ccc(N2CCC3(CC2)CCN(c2ccc4c(c2)-c2nc(N5C(=O)OC[C@H]5C(F)F)cn2CCO4)CC3)cc1 [Compound 183] | – | – | 219 | 21
17 | C=CC(=O)Nc1ccc(C#CC2CCN(c3ccc4c(c3)-c3nc(N5C(=O)OC[C@H]5C(F)F)cn3CCO4)CC2)cc1 [Compound 179] | 50 to 100 | 50 to 100 | – | –
18 | Cc1nc(-c2cn3c(n2)-c2cc(N4CCN(C5CN(c6ccc(NC(=O)C(C#N)=CC(C)(C)N)cc6)C5)CC4)ccc2OCC3)n(C(C)C)n1 [Compound 336] | < 50 | < 50 | – | –
19 | C=CC(=O)N1CC(N2CC[C@H](CN3CCN(c4ccc5c(c4)-c4nc(N6C(=O)OC[C@H]6C(F)F)cn4CCO5)CC3)C2)C1 [Compound 92] | – | – | 200 | 20
20 | CC#CC(=O)Nc1ccc(N2CC(N3CCN(c4ccc5c(c4)-c4nc(N6C(=O)OC[C@H]6C(F)F)cn4CCO5)CC3)C2)c(F)c1 [Compound 149] | – | – | 115 | 16
21 | C=CC(=O)Nc1ccc(CCC(=O)N2CCN(c3ccc4c(c3)-c3nc(N5C(=O)OC[C@H]5C(F)F)cn3CCO4)CC2)cc1 [Compound 11] | – | – | 298 | 58
22 | COC(C)(C)C=C(C#N)C(=O)Nc1ccc(N2CC(N3CCN(c4ccc5c(c4)-c4nc(N6C(=O)OC[C@H]6C(F)F)cn4CCO5)CC3)C2)nc1 [Compound 249] | < 50 | < 50 | – | –

Row | SMILES | IC50 [1, 3] [nM] | IC50 [2, 4] [nM] | IC50 [1, 5] [nM] | IC50 [2, 6] [nM]
23 | C=CC(=O)N1CCc2nc(N3CC(N4CCN(c5ccc6c(c5)-c5nc(N7C(=O)OC[C@H]7C(F)F)cn5CCO6)CC4)C3)sc2C1 [Compound 154] | – | – | 54 | 4.9
24 | CC(C)=CC(=O)CCCCC(=O)N1CCN(c2ccc3c(c2)-c2nc(N4C(=O)OC[C@H]4C(F)F)cn2CCO3)CC1 [Compound 158] | – | – | 249 | 321
25 | COCCNC(C)(C)C=C(C#N)C(=O)Nc1ccc(N2CC(N3CCN(c4ccc5c(c4)-c4nc(N6C(=O)OC[C@H]6C(F)F)cn4CCO5)CC3)C2)cc1 [Compound 218] | < 50 | < 50 | – | –
26 | CC(C)(C)C=C(C#N)C(=O)Nc1ccc(N2CC(N3CCN(c4ccc5c(c4)-c4nc(N6C(=O)OC[C@H]6C(F)F)c(C6CC6)n4CCO5)CC3)C2)cc1 [Compound 322] | < 50 | < 50 | – | –
27 | N#CC(=CC1CCCN1)C(=O)Nc1ccc(N2CC(N3CCN(c4ccc5c(c4)-c4nc(N6C(=O)OC[C@H]6C(F)F)cn4CCO5)CC3)C2)c(F)c1 (stereo partly shown) [Compound 234] | < 50 | < 50 | – | –
28 | CC(C)(C)C=C(C#N)C(=O)Nc1ccc(N2CC(N3CCN(c4ccc5c(c4)-c4nc(N6C(=O)OC[C@H]6C(F)F)cn4CCO5)CC3)C2)c(F)c1 [Compound 223] | < 50 | < 50 | – | –
29 | C=CC(=O)Nc1ccc(N2CC(N3CCN(c4ccc5c(c4)-c4nc(-c6nc(C)nn6C(C)C)cn4CCO5)CC3)C2)cc1 [Compound 111] | – | – | 2.5 | 0.1
30 | C=CC(=O)N1CCC(N2CC(N3CCN(c4ccc5c(c4)-c4nc(N6C(=O)OC[C@H]6C(F)F)cn4CCO5)CC3)C2)CC1 [Compound 105] | – | – | 620 | 23
31 | CC(C)(C=C(C#N)C(=O)Nc1ccc(N2CC(N3CCN(c4ccc5c(c4)-c4nc(N6C(=O)OC[C@H]6C(F)F)cn4CCO5)CC3)C2)cc1Cl)NC(=O)OC(C)(C)C [Compound 358] | < 50 | < 50 | – | –
32 | C=CC(=O)Nc1ccc(N2CC(N3CCN(c4cc5c(cc4F)OCCn4cc(N6C(=O)OC[C@H]6C(F)F)nc4-5)CC3)C2)cc1 [Compound 102] | – | – | 232 | 23
33 | CC(C)=CC(=O)CCCC(=O)N1CCN(Cc2ccc3c(c2)-c2nc(N4C(=O)OC[C@H]4C(F)F)cn2CCO3)CC1 [Compound 190] | 50 to 100 | < 50 | – | –
34 | CN(C1COC1)C(C)(C)C=C(C#N)C(=O)Nc1ccc(N2CC(N3CCN(c4ccc5c(c4)-c4nc(N6C(=O)OC[C@H]6C(F)F)cn4CCO5)CC3)C2)nn1 [Compound 295] | < 50 | < 50 | – | –
35 | C=CC(=O)N1CCCc2cc(N3CC(N4CCN(c5ccc6c(c5)-c5nc(N7C(=O)OC[C@H]7C(F)F)cn5CCO6)CC4)C3)ccc21 [Compound 159] | – | – | 28 | 1.8
36 | C=CC(=O)N1CCC(C(=O)NCC(=O)N2CCN(c3ccc4c(c3)-c3nc(N5C(=O)OC[C@H]5C(F)F)cn3CCO4)CC2)CC1 [Compound 6] | – | – | 663 | 99
37 | CN(C)C/C=C/C(=O)Nc1ccc(N2CC(N3CCN(c4ccc5c(c4)-c4nc(N6C(=O)OC[C@H]6C(F)F)cn4CCO5)CC3)C2)nn1 [Compound 287] | < 50 | < 50 | – | –
38 | CN(C1CCC1)C(C)(C)C=C(C#N)C(=O)Nc1ccc(N2CC(N3CCN(c4ccc5c(c4)-c4nc(N6C(=O)OC[C@H]6C(F)F)cn4CCO5)CC3)C2)cc1 [Compound 156] | – | – | 49 | 19
39 | C=CC(=O)Nc1ccc(N2CC3(CCN(c4ccc5c(c4)-c4nc(N6C(=O)OC[C@H]6C(F)F)cn4CCO5)C3)C2)cc1 [Compound 93] | – | – | 551 | 76
40 | C=CC(=O)N1CCc2cc(CN3CCN(c4ccc5c(c4)-c4nc(N6C(=O)OC[C@H]6C(F)F)cn4CCO5)CC3)ccc2C1 [Compound 207] | 50 to 100 | < 50 | – | –
41 | CN(C1COC1)C(C)(C)C=C(C#N)C(=O)Nc1ccc(N2CC(N3CCN(c4ccc5c(c4)-c4nc(N6C(=O)OC[C@H]6C(F)F)cn4CCO5)CC3)C2)cc1Cl [Compound 361] | < 50 | < 50 | – | –
42 | C=CC(=O)N1CCc2cc(N3CC(N4CCN(c5ccc6c(c5)-c5nc(N7C(=O)OC[C@H]7C(F)F)cn5CCO6)CC4)C3)cc(C#N)c21 [Compound 193] | < 50 | < 50 | – | –
43 | CC(C)=CC(=O)CCCCC(=O)N1CC(N2CCN(c3ccc4c(c3)-c3nc(N5C(=O)OC[C@H]5C(F)F)cn3CCO4)CC2)C1 [Compound 157] | – | – | 228 | 24
44 | COC(C)(C)C=C(C#N)C(=O)Nc1cnc(N2CC(N3CCN(c4ccc5c(c4)-c4nc(N6C(=O)OC[C@H]6C(F)F)cn4CCO5)CC3)C2)nc1 [Compound 267] | < 50 | < 50 | – | –
